The values below come from patent US9365562B2, “1,3 substituted azetidine PDE10 inhibitors” (Merck Sharp & Dohme Corp., priority 2011, dated 2016).

Sequence of human PDE10A2 (Q9Y233 267-1055): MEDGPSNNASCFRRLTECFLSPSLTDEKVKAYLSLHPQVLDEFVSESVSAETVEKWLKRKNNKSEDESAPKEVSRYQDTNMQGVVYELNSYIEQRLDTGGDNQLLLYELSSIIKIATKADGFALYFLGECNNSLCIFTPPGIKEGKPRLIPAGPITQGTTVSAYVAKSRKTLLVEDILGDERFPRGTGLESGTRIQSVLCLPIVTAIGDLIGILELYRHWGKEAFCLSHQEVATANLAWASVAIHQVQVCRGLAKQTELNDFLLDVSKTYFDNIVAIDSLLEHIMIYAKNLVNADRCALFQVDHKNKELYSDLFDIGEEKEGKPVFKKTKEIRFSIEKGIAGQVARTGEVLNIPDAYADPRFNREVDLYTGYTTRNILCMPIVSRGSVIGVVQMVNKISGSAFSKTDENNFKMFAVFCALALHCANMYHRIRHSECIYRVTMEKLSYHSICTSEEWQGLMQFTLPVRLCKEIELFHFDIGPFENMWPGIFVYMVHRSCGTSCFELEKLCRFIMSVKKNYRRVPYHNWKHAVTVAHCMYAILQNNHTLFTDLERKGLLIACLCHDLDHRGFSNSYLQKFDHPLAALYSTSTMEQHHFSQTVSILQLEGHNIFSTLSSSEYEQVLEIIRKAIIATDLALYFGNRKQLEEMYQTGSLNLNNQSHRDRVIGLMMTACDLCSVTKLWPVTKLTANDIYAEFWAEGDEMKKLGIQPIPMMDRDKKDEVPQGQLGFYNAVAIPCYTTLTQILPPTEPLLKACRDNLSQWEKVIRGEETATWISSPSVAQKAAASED

The assay concerns the target human PDE10A2 (Homo sapiens (Human), UniProt Q9Y233). Briefly: PDE10 fluorescence polarization (IMAP FP) inhibition assay. It is filed as biochemical. The settings on record: apparent inhibition constant, FAM-labeled cAMP substrate 50 nM, room temperature. The procedure, abridged: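 Cytoplasmic lysate of AD293 cells transiently expressing human PDE10A2, enzyme preincubated 60 min at room temperature with compounds (1% DMSO), then 50 nM FAM-cAMP added for 60 min. Buffer 10 mM Tris HCl pH 7.2, 10 mM MgCl2, 1 mM DTT; IMAP binding reagent stop, FP read after ≥1 h.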
For `Cc1nc(-c2ccc(C#N)cn2)cc(N2CC(c3nc4ccccc4n3C)C2)n1` [Example 103, 6-(2-methyl-6-(3-(1-methyl-1H-benzo[d]imidazol-2-yl)azetidin-1-yl)pyrimidin-4-yl)nicotinonitrile], the Ki came out at 2.4 nM.
Regarding `Cc1nc(C)n(-c2cc(N3CC(c4nc5ccccc5n4C)C3)nc(N3CCCC3)n2)n1` [Example 78, 2-{1-[6-(3,5-dimethyl-1H-1,2,4-triazol-1-yl)-2-(pyrrolidin-1-yl)pyrimidin-4-yl]azetidin-3-yl}-1-methyl-1H-benzimidazole], the Ki amounted to 0.29 nM.
As for `Cc1nc(N2CC(c3nc4c(C(F)(F)F)cccc4n3C)C2)cc(-n2nc(C)nc2C)n1` [Example 125, 2-(1-(6-(3,5-dimethyl-1H-1,2,4-triazol-1-yl)-2-methylpyrimidin-4-yl)azetidin-3-yl)-1-methyl-4-(trifluoromethyl)-1H-benzo[d]imidazole], the Ki came out at 37 nM.
Turning to `Cc1nc(N2CC(c3nc4ccccc4n3C)C2)cc(-n2cc(CO)cn2)n1` [Example 19, (1-(2-methyl-6-(3-(1-methyl-1H-benzo[d]imidazol-2-yl)azetidin-1-yl)pyrimidin 4-yl)-1H-pyrazol-4-yl)methanol], the Ki was determined as 8.3 nM.
Take `Cc1ccc(-c2nc(C)nn2-c2cc(N3CC(c4nc5ccccc5n4C)C3)nc(C)n2)cn1` [Example 55, 1-methyl-2-(1-(2-methyl-6-(3-methyl-5-(6-methylpyridin-3-yl)-1H-1,2,4-triazol-1-yl)pyrimidin-4-yl)azetidin-3-yl)-1H-benzo[d]imidazole]: the Ki was 10 nM.
For `Cc1nc(C)n(-c2cc(N3CC(c4nc5ccccc5n4C)C3)nc(OCc3ccon3)n2)n1` [Example 74, 3-(((4-(3,5-dimethyl-1H-1,2,4-triazol-1-yl)-6-(3-(1-methyl-1H-benzo[d]imidazol-2-yl)azetidin-1-yl)pyrimidin-2-yl)oxy)methyl)isoxazole], the Ki is 0.49 nM.
Regarding `CCc1cnn(-c2cc(N3CC(c4nc5ccccc5n4C)C3)nc(C)n2)c1` [Example 15, 2-(1-(6-(4-ethyl-1H-pyrazol-1-yl)-2-methylpyrimidin-4-yl)azetidin-3-yl)-1-methyl-1H-benzo[d]imidazole], the Ki is 3.4 nM.
Turning to `CCCn1c(C2CN(c3cc(-n4nc(C)nc4C)nc(C)n3)C2)nc2ccccc21` [Example 118, 2-(1-(6-(3,5-dimethyl-1H-1,2,4-triazol-1-yl)-2-methylpyrimidin-4-yl)azetidin-3-yl)-1-propyl-1H-benzo[d]imidazole], the Ki came to 13 nM.
As for `Cc1nc(N2CC(c3nc4cccc(C)c4[nH]3)C2)cc(-n2nc(C)nc2C)n1` [Example 110, 2-(1-(6-(3,5-dimethyl-1H-1,2,4-triazol-1-yl)-2-methylpyrimidin-4-yl)azetidin-3-yl)-7-methyl-1H-benzo[d]imidazole], the Ki was 17 nM.
